# Tested on: iPSC-derived primitive streak cells
# Test: Flow cytometry of differentiation markers after CHIR99021 treatment of primitive streak cells
# Format: cell-based, human
# Method: iPSCs seeded onto Geltrex-coated plates at a density of 100,000 cells/cm^2 were treated with mTesR media with 10 μM ROCKi for the first 24 h. On Day 0, cells were treated with base media (DMEM/F12 with GlutaMax, 1×B27) supplemented with primitive streak induction factors including 100 ng/ml Activin A and 3 μM CHIR99021. On Day 2, cells were treated with base media including 8 μM CHIR99021 to induce intermediate mesoderm until Day 5, followed by treatment with base medium containing 200 ng/ml FGF9 and 1 mg/ml Heparin (Sigma-Aldrich, St. Louis, Missouri). On Day 7, to induce the nephron progenitors, the cells were dissociated using Accutase and replated (1:4) onto laminin-511-coated plates. The podocyte phenotype was induced using base media supplemented with 100 ng/ml BMP7, 100 ng/ml Activin A, 50 ng/ml VEGF, 3 μM CHIR99021, and 0.1 μM RA and cells were assayed on Day 12. The detailed methods for deriving the podocytes was carefully described elsewhere (Bejoy J, et al. STAR protocols. 2021 2 (4): 100898).
# To evaluate the expression of proteins of interest quantitatively, the cells were harvested by Accutase treatment and analyzed by flow cytometry. […] The cells were acquired with BD FACSCanto II flow cytometer (BD Biosciences, Beckton, New Jersey) and analyzed against isotype controls using FlowJo software. […]
smiles,measurement,setting,value
Cc1c[nH]c(-c2cnc(NCCNc3ccc(C#N)cn3)nc2-c2ccc(Cl)cc2Cl)n1 [CHIR99021],population of MIXL1+ cells (flow cytometry),8 μM CHIR99021 for 2-3 days on primitive streak cells,26.7%
same,cells expressing PAX8 (flow cytometry),"day 5, after 8 μM CHIR99021, intermediate mesoderm stage",95.9%

# — US20240352426A1, “Accelerated Protocol for the Differentiation of Podocytes from Human Pluripotent Stem Cells” (Vanderbilt University, priority 2021, published 2024)
